Reference: US20230414605A1, “Method of Treating Cancer Using FABP5 Inhibitors” (Aurigene Oncology Limited, priority 2020, published 2023)

Legend:
Type in all cases: cell-based
[1] = tested on: OCI-LY3 cells; assay: Anti proliferative activity in haematological cancer cell lines (CellTiter Glo), OCI-LY3
Description: (§1) After 24 hours, selected compound of the present invention was added to cells from 10 mM stocks made in DMSO (Sigma Cat no. D2650). CTG reading was taken on the day of compound addition which was labelled as Day 0 reading. Each concentration of compound was tested in triplicate with DMSO concentration not exceeding a final percentage of 0.1 in the cells. After 3 days (72 hours) of incubation assay terminated using 100 μl of CellTiter Glo® reagent (Promega, Cat. no G7572). CellTiter Glo® Luminescent reagent determines the number of viable cells based on quantitation of ATP present which is an indicator of cell number and metabolically activity. Luminescence readings were taken in Victor-3 instrument. The data was analysed using graph pad prism software. Positive control (100% survival)=Cells in complete media with […]; Negative control/blank (0% survival)=Media alone containing 0.1% DMSO.

[2] = tested on: OCI-LY10; assay: Anti proliferative activity in haematological cancer cell lines (CellTiter Glo), OCI-LY10; conditions: Homo sapiens, OCI-LY10, ABC-DLBCL, 72 hours incubation
Description: as §1

[3] = tested on: HBL-1; assay: Anti proliferative activity in haematological cancer cell lines (CellTiter Glo), HBL-1; conditions: HBL1, HBL-1, ABC-DLBCL, 72 hours incubation
Description: as §1

[4] = tested on: TMD8* (wt btk); assay: Anti proliferative activity in haematological cancer cell lines (CellTiter Glo), TMD8; conditions: Homo sapiens, ABC-DLBCL, 72 hours incubation
Description: as §1

[5] = tested on: Pfeiffer; assay: Anti proliferative activity in haematological cancer cell lines (CellTiter Glo), Pfeiffer; conditions: Homo sapiens, GCB-DLBCL, 72 hours incubation
Description: as §1

[6] = tested on: DOHH-2; assay: Anti proliferative activity in haematological cancer cell lines (CellTiter Glo), DOHH-2; conditions: Homo sapiens, DOHH-2, Follicular lymphoma, 72 hours incubation
Description: as §1

[7] = tested on: CCRF-CEM; assay: Anti proliferative activity in haematological cancer cell lines (CellTiter Glo), CCRF-CEM
Description: as §1

[8] = tested on: CUTLL-1; assay: Anti proliferative activity in haematological cancer cell lines (CellTiter Glo), CUTLL-1
Description: as §1

[9] = tested on: H929; assay: Anti proliferative activity in haematological cancer cell lines (CellTiter Glo), H929
Description: as §1

Which IC50 ([1]; Homo sapiens, OCI-LY3, ABC-DLBCL, 72 hours incubation, CellTiter Glo) does the source give for `C=CC(=O)N1CCN(C(=O)NC2(C#Cc3ccc(Cl)c(Cl)c3)CC2)CC1` [Cpd 23] here?
Its IC50 is 0.02 µM.

And the “anti-proliferative activity (in words)” value ([1]; OCI-LY3 (ABC-DLBCL), activating mutation in CARD11)?
Its value is “potent anti-proliferative activity”.

What about the IC50 [2] of the same compound?
Its IC50 is 0.01 µM.

What about the IC50 [3] of the same compound?
The IC50 was 0.35 µM.

And the IC50 [4]?
Its IC50 is 0.01 µM.

What about the IC50 [5] of the same compound?
The IC50 was 0.87 µM.

And the IC50 [6]?
The IC50 was 0.02 µM.

And the “anti-proliferative activity (in words)” value ([7]; CCRF-CEM (T-cell acute lymphoblastic leukemia))?
Its value is “potent anti-proliferative activity”.

And the IC50 ([7]; Homo sapiens, CCRF-CEM, T-cell acute lymphoblastic leukemia, 72 hours incubation, CellTiter Glo)?
The IC50 was 0.28 µM.

What about the IC50 ([8]; CUTLL1, CUTLL-1, T-cell acute lymphoblastic leukemia, 72 hours incubation, CellTiter Glo) of the same compound?
The IC50 was 0.05 µM.

What about the “anti-proliferative activity (in words)” value ([8]; CUTLL-1 (T-cell acute lymphoblastic leukemia)) of the same compound?
Its value is “potent anti-proliferative activity”.

And the “anti-proliferative activity (in words)” value ([9]; H929 (multiple myeloma))?
Its value is “potent anti-proliferative activity”.

What about the IC50 ([9]; Homo sapiens, NCI-H929, H929, Multiple myeloma, 72 hours incubation, CellTiter Glo) of the same compound?
The IC50 was 0.05 µM.
